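Values below derive from 48-hour exposures of cells grown in 96-well plates, with endpoints linearly interpolated between the two concentrations bracketing the appropriate inhibition level. The concentration for 50% growth inhibition is given as GI50. TGI is the concentration that stops growth completely.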
Assays:
P388 leukemia = experiment: NCI tumour cell line growth inhibition, 48 h
P388/ADR leukemia = experiment: NCI tumour cell line growth inhibition, 48 h

SMILES	TGI (P388 leukemia)	GI50 (P388 leukemia)	GI50 (P388/ADR leukemia)	TGI (P388/ADR leukemia)
CCOC(=O)Nc1ccc2c(c1)N(C(=O)CCN(CC)CC)c1ccccc1S2	32.2 µM			
O=C(O)c1ccc(C(=O)O)c(C(=O)O)c1.[NH-]C1CCCCC1[NH-].[Pt+2]	14.6 µM	0.262 µM	2.15 µM	> 100 µM
